This note sets out measurements from publication PMC3739823, “Structural Guided Scaffold Phage Display Libraries as a Source of Bio-Therapeutics” (PLoS ONE, 2013).

No end group written: not given here.

For one series, the system named is cellular αvβ6. Put plainly: Inhibition of A20FMDV2 binding to cellular αvβ6 (flow cytometry). It is filed as cell-based. As to conditions: 0.1 and 1.0 µM, 10 min pre-incubation, 40 min with 10 nM biotinylated A20FMDV2; % of MFI without inhibitor.
In the next series the test system is recombinant αvβ6. Kind of series: Monoclonal scFv screening ELISA / binding to immobilised recombinant αvβ6. To be noted: specific binding to recombinant αvβ6, summary statement. The protocol:
Figure 2 Screening of phage clones isolated from the α-helix & 3_10-helix libraries. A) Monoclonal scFv screening ELISA testing 96 clones in each library. Bacterial supernatants were added to 5 µg/ml recombinant αvβ6 immobilized onto ELISA plate and then probed with mouse anti-Myc antibody followed by anti-mouse-HRP. B) Clones with unique sequences were screened for binding cellular αvβ6 by flow cytometry. […] For clarity the relevant αvβ6-specific mouse monoclonal antibody 10D5 (grey) and the negative control IgG (black) histograms are also shown in each plot. […] TEXT PRINTED IN THE PICTURE: (C) D25: 30kDa | (C) D34: 30kDa
The α-helix and 3_10 libraries were each rescued separately KM13 helper phage as described previously. For selection, we used in parallel each library separately as well as mixed alpha helix and 3_10 libraries. The initial phage selection was performed using immobilised recombinant αvβ6 protein as described previously, [29] and http://www.lifesciences.sourcebioscience.com/ media/143421/tomlinsonij.pdf. After two rounds of selection on immobilised αvβ6 we then selected the libraries on cell-expressed αvβ6 using A375Pβ6 and A375PPuro cell lines, for αvβ6-positive and αvβ6-negative selection, respectively, [22]. First line screening were done by ELISA using 5 µg/ml immobilised recombinant αvβ6 as described.

Series [1] in a line: Size-exclusion chromatography (FPLC) of purified scFv.
A further series deals with A375Ppuro cells. Put plainly: Flow cytometry binding to αvβ6-negative cells. It is filed as cell-based. As to conditions: for binding to αvβ6-negative cells: flow cytometry, A375Ppuro (αvβ3, αvβ5, αvβ8, α5β1 positive), dose dependent binding analysis, 0.1 or 1 uM; for binding to αvβ6-negative cells (Figure S1): biotinylated peptide at 1 uM, A375Ppuro, rabbit anti-biotin IgG then anti-rabbit IgG-Alexafluor 488. The protocol:
(§1) The adherent melanoma cell lines A375Pβ6 and A375Ppuro, described previously were cultured in Dulbecco's Modified Eagles' Medium (DMEM) supplemented with 10% Foetal Calf Serum (FCS). The human oral squamous cell carcinoma VB6, which was engineered to express high levels of αvβ6, was grown in Keratinocyte Growth Medium as described.
(§2) Purified scFv were tested for specificity for αvβ6 by flow cytometry using the isogenic pairs of cell lines, A375Pβ6 and A375Ppuro, or DX3β6 and DX3puro. Each pair expresses similar levels of four RGD-binding integrins (αvβ3, αvβ5, αvβ8, α5β1) but only A375Pβ6 and DX3β6 express αvβ6 [14], [22], [30]. Briefly, cells were detached with trypsin/EDTA, rinsed twice in ice-cold wash buffer (0.1% BSA/DMEM/0.1% NaN3) and approximately 2×10^5 cells re-suspended in 50 µl of wash buffer per sample. In between all incubation steps, all samples were washed twice with wash buffer unless otherwise stated. Cells were incubated on ice for 1 hr with 0.1 or 1 uM purified scFv of peptide, washed twice. For scFv, cells were then incubated for 1 hr on ice with mouse anti-Myc antibody (clone 9E10, Santa Cruz) at 1∶100. After washing, bound antibody was detected with anti-mouse IgG-Alexaflour 488 (1∶250 for 1 h; Molecular Probes), on ice. […] Cells were analysed using the FACSCalibur (Beckton Dickinson). Cell expression of αvβ6 integrin was detected with mouse monoclonal antibody (clone 10D5, 10 µg/ml; Millipore) and non-specific (control) binding with non-immune class matched IgG.
Supplementary file pone.0070452.s001.tif: Figure S1 A375Ppuro cells were incubated with biotinylated D25p or D34p at 1 uM. Bound peptide was detected with rabbit anti-biotin IgG (1∶200), followed by anti-rabbit IgG-Alexafluor 488 (1∶250; Molecular Probes). […] Black histograms represent controls where peptides were omitted. (TIF) Click here for additional data file.

The subject of series [2] is A375Pβ6 cells (cellular αvβ6). Put plainly: Flow cytometry binding to αvβ6-expressing cells. As to conditions: for binding to αvβ6-expressing cells: flow cytometry, dose dependent binding analysis, 0.1 or 1 uM, 1 hr on ice, MFI. It is filed as cell-based. The protocol:
as §1, §2

The test system of another series is αvβ6-expressing cells. Put plainly: Internalisation assay, αvβ6-expressing cells (confocal microscopy). To be noted: for cellular internalisation in αvβ6-expressing cells: scFv 4 uM or biotinylated peptide 100 nM, confocal microscopy; for cellular internalisation in αvβ6-expressing cells / nuclear localisation / time of efficient internalisation: 37°C; for nuclear localisation / time of efficient internalisation: biotinylated peptide 100 nM.

The test system of a further series is αvβ6-negative cells. Kind of series: Internalisation assay, αvβ6-negative cells (confocal microscopy). To be noted: scFv 4 uM or biotinylated peptide 100 nM, 37°C.
The subject of series [3] is αvβ6-dependent adhesion of carcinoma cells to immobilised fibronectin. Put plainly: αvβ6-dependent adhesion to fibronectin (Picogreen adhesion assay). Format: cell-based. To be noted: for inhibition of αvβ6-dependent adhesion to fibronectin: fibronectin 10 ug/ml, 30 min at 37°C, quadruplicate, repeated at least 2-3 times. As to the method: All adhesion assays were performed in quadruplicate and repeated at least 2–3 times. In a 96-well plate format, test wells were coated with Fibronectin (10 ug/ml/PBS) and negative control wells were coated with 0.1% BSA (bovine serum albumin)/PBS. After incubation at 37°C for 1 hour, plates were washed in PBS twice and blocked with 0.1% BSA/PBS for 30 mins at 37°C. Following a PBS rinse, cells were seeded into the wells, the plate resting on ice to avoid dehydration and to ensure an initial uniform temperature for the experiment. Purified scFv or peptide was added (25 ul) to the wells at the desired concentrations, before adding 1.5×10^4 cells (25 ul) per well. In some experiments, cells (1.5×10^4) were pre-treated with β1 blocking antibody AIIB2 at 10 ug/ml before seeding into test wells to block the β1-dependent fibronectin adhesion. To determine percentage adhesion, standard curves were generated by plating 0–2.5×10^4 cells in separate wells. After incubating plates at 37°C for 30′ plates were washed twice in 1 mM CaCl2/0.5 mM MgCl2/PBS and transferred into −80°C for 15 mins. Adherent cells were quantified using a Picogreen kit (Invitrogen) and analysed on a fluorescence reader (FLUOstar Optima, BMG Labtech Ltd, Bucks, UK).

As to “D25scFv: human scFv clone with synthetic VH-CDR3 encoding RGD α-helix, EP RGDLRTLAAREKRNFNETLAR LQEKGI”, in the series on cellular αvβ6, the “inhibition of A20FMDV2 binding to cellular αvβ6” value (shortened to “inhibition of A20FMDV2 binding”) is on record as “dose-dependent inhibition”. In addition, in the series on recombinant αvβ6, the “binding to recombinant αvβ6” value is “specific binding to recombinant and cellular αvβ6”. Also, in series [1] (HiPrep 16/60 sephacryl S-200, PBS, 0.3 ml/min, 280 nm, scFv dimers and tetramers), the “size-exclusion lower peaks elution volume” value fell in the range of 45 to 60 mL. Moreover, in series [1] (HiPrep 16/60 sephacryl S-200, PBS, calibration curve), the “size-exclusion major peak, apparent molecular weight” value came out at 30 kDa. Moreover, the “oligomerisation by size-exclusion chromatography” value in series [1] (lower peaks at 45–60 ml, PBS) was “scFv dimers and tetramers”. Further, in the series on A375Ppuro cells, the “binding to αvβ6-negative cells” value was “not A375Ppuro”. Moreover, the “comparison of binding to cellular αvβ6, D34scFv versus D25scFv” value in series [2] (discussion statement) is “no difference in binding”. In series [2], the “binding to αvβ6-expressing cells” value was “αvβ6-specific binding to A375Pβ6 cells”. The “binding to cellular αvβ6, flow cytometry verification” value in series [2] (scFv at 100, 10 and 1 µg/ml) was “Binding to cellular αvβ6”. Moreover, the “cellular internalisation in αvβ6-expressing cells” value in the series with αvβ6-expressing cells is reported as “cellular internalisation in αvβ6-expressing cells”. Moreover, in the series with αvβ6-expressing cells (scFv 4 uM, 0 minutes, αvβ6-expressing cells), the “cellular localisation at 0 minutes” value is “localised at the cell surface”. Further, in the series on αvβ6-expressing cells (scFv 4 uM, 37°C for 45 minutes, αvβ6-expressing cells), the “cellular localisation at 45 minutes” value is “localised within the cell cytoplasm and nucleus”. Also, in the series on αvβ6-negative cells, the “cellular internalisation in αvβ6-negative cells” value is on record as “not in αvβ6-negative cells”. Moreover, in series [3], the “inhibition of αvβ6-dependent adhesion to fibronectin” value (from here on “inhibition … to fibronectin”) is on record as “significant concentration-dependent inhibition”. In addition, in series [3] (p>0.05), the “comparison of adhesion inhibition, D25scFv vs D34scFv” value is recorded as “similarly inhibited”.

As to “EP RGDLRTLAAREKRNFNETLAR LQEKGI [D25p, VH-CDR3 derived peptide of D25scFv, 29 amino-acids]”, the “inhibition of A20FMDV2 binding” value with cellular αvβ6 is recorded as “dose-dependent inhibition”. Besides, the “binding to recombinant αvβ6” value in the series on recombinant αvβ6 was “specific binding to recombinant and cellular αvβ6”. The “binding to αvβ6-negative cells” value with A375Ppuro cells was “not A375Ppuro”. Besides, the “binding to αvβ6-expressing cells” value in series [2] is given as “αvβ6-specific binding to A375Pβ6 cells”. The “comparison of inhibition of αvβ6-cellular function, D25p vs D34p” value in series [3] (discussion statement) is reported as “more efficient inhibitor of αvβ6-cellular function than D34p”. The “inhibition … to fibronectin” value in series [3] is given as “significant concentration-dependent inhibition”. In addition, the “comparison of adhesion inhibition, D25p vs D34p” value in series [3] (p = 0.0156, Wilcoxon matched-pairs signed rank test) was “significantly stronger than D34p”.

Turning to “QP RGDLRELAARSEAQLQEKGI [D34p, VH-CDR3 derived peptide of D34scFv, 22 amino-acids]”, the “inhibition of A20FMDV2 binding” value in the series on cellular αvβ6 is on record as “dose-dependent inhibition”. In the series with recombinant αvβ6, the “binding to recombinant αvβ6” value is “specific binding to recombinant and cellular αvβ6”. Besides, in the series on A375Ppuro cells, the “binding to αvβ6-negative cells (Figure S1)” value is listed as “no significant binding” and the “binding to αvβ6-negative cells” value is recorded as “not A375Ppuro”. Further, the “binding to αvβ6-expressing cells” value in series [2] was “αvβ6-specific binding to A375Pβ6 cells”. In series [3], the “inhibition … to fibronectin” value is recorded as “significant concentration-dependent inhibition”.

“biotinylated-D25p: biotinylated D25p peptide (EPRGDLRTLAAREKRNFNETLARLQEKGI; also: biotinylated, position not given here)”: the “binding to αvβ6-negative cells (Figure S1)” value in the series with A375Ppuro cells is recorded as “no significant binding”. Also, in the series on αvβ6-expressing cells (αvβ6-expressing cells), the nuclear localisation entry is listed as “no nuclear localisation” and the “time of efficient internalisation” value lay in the range of 30 to 45 min. The “cellular internalisation in αvβ6-expressing cells” value in the series on αvβ6-expressing cells is “cellular internalisation in αvβ6-expressing cells”. The “cellular internalisation in αvβ6-negative cells” value in the series with αvβ6-negative cells was “not in αvβ6-negative cells”.

Consider “biotinylated-D34p: biotinylated D34p peptide (QPRGDLRELAARSEAQLQEKGI; also: biotinylated, position not given here)”, for which, in the series on αvβ6-expressing cells (αvβ6-expressing cells), the nuclear localisation result is on record as “no nuclear localisation” and the “time of efficient internalisation” value was in the range of 30 to 45 min. The “cellular internalisation in αvβ6-expressing cells” value with αvβ6-expressing cells was “cellular internalisation in αvβ6-expressing cells”. In addition, the “cellular internalisation in αvβ6-negative cells” value with αvβ6-negative cells is recorded as “not in αvβ6-negative cells”.
